From patent publication US12643871B2, “Aryl formamide compound containing chiral sulfur oxide or salt thereof, preparation method, herbicidal composition and use thereof” (Qingdao Kingagroot Chemical Compound Co., Ltd., priority 2019, dated 2026)

Tests used:
Experiment in all cases: Weeding effect in post-emergence stage
Type in all cases: in vivo
Conditions in all cases: 250 g/ha; 2 leaf stage; 15 days after application; fresh weight control rate
Abutilon theophrasti = tested on: Abutilon theophrasti
Procedure, shortened: (§1)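 Greenhouse pot-grown weeds were sprayed at the 2-leaf stage, 2 weeks after sowing, with compound in acetone/Tween 80 plus 1.5 L/ha methyl oleate EC, at 500, 250, 125, 60, 30 or 15 g/ha. Fresh-weight growth control was scored 15 days later on a 0–5 scale, mean of three repeats.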

Amaranthus retroflexus = tested on: Amaranthus retroflexus
Procedure, shortened: as §1

Digitaria sanguinalis = tested on: Digitaria sanguinalis
Procedure, shortened: as §1

Echinochloa crusgali = tested on: Echinochloa crusgali
Procedure, shortened: as §1

Setaria viridis = tested on: Setaria viridis
Procedure, shortened: as §1

Structure (SMILES)	weeding effect in post-emergence stage, activity level (growth control rate), Abutilon theophrasti (Abutilon theophrasti)	weeding effect in post-emergence stage, activity level (growth control rate), Amaranthus retroflexus (Amaranthus retroflexus)	weeding effect in post-emergence stage, activity level (growth control rate), Digitaria sanguinalis (Digitaria sanguinalis)	weeding effect in post-emergence stage, activity level (growth control rate), Echinochloa crusgali (Echinochloa crusgali)	weeding effect in post-emergence stage, activity level (growth control rate), Setaria viridis (Setaria viridis)
Cc1nnc(NC(=O)c2ccc(C(F)(F)F)c([S@+]([O-])C(F)(F)F)c2F)o1 [Compound 30]	5 (Level 5: growth control rate is above 85%)	5 (Level 5: growth control rate is above 85%)	5 (Level 5: growth control rate is above 85%)	5 (Level 5: growth control rate is above 85%)	5 (Level 5: growth control rate is above 85%)
Cc1nnc(NC(=O)c2ccc(C(F)(F)F)c([S@+]([O-])C(F)(F)C(F)(F)F)c2F)o1 [Compound 31]	5 (Level 5: growth control rate is above 85%)	5 (Level 5: growth control rate is above 85%)	5 (Level 5: growth control rate is above 85%)	5 (Level 5: growth control rate is above 85%)	5 (Level 5: growth control rate is above 85%)
Cc1nnc(NC(=O)c2ccc(C(F)(F)F)c([S@+]([O-])C(F)(C(F)(F)F)C(F)(F)F)c2F)o1 [Compound 32]	5 (Level 5: growth control rate is above 85%)	5 (Level 5: growth control rate is above 85%)	5 (Level 5: growth control rate is above 85%)	5 (Level 5: growth control rate is above 85%)	5 (Level 5: growth control rate is above 85%)
Cc1nnc(NC(=O)c2ccc(C(F)(F)F)c([S+]([O-])C(F)(F)C(F)(F)C(F)(F)F)c2F)o1 (stereo not drawn) [Compound 33]	5 (Level 5: growth control rate is above 85%)	5 (Level 5: growth control rate is above 85%)	5 (Level 5: growth control rate is above 85%)	5 (Level 5: growth control rate is above 85%)	5 (Level 5: growth control rate is above 85%)
Cc1nnc(NC(=O)c2ccc(C(F)(F)F)c([S@+]([O-])CCCC(F)(F)F)c2F)o1 [Compound 34]	5 (Level 5: growth control rate is above 85%)	5 (Level 5: growth control rate is above 85%)	5 (Level 5: growth control rate is above 85%)	5 (Level 5: growth control rate is above 85%)	5 (Level 5: growth control rate is above 85%)
Cc1nnc(NC(=O)c2ccc(C(F)(F)F)c([S@+]([O-])CCC(F)(F)C(F)(F)F)c2F)o1 [Compound 35]	5 (Level 5: growth control rate is above 85%)	5 (Level 5: growth control rate is above 85%)	5 (Level 5: growth control rate is above 85%)	5 (Level 5: growth control rate is above 85%)	5 (Level 5: growth control rate is above 85%)
